# Experimental data published in EP4799619A1, “COMPOUND TARGETING EGR-1 AND USE THEREOF FOR TREATMENT OF ATOPIC DERMATITIS” (AgeraMedi, Inc., priority 2023, dated 2025).
# Target: EGR-1 (Homo sapiens, UniProt P18146)
# Assay: EGR-1 DNA binding activity assay (EDBA)
# Set-up: made in house
# Conditions: EGR-1 DNA binding inhibitory activity; EGR-1 overexpressing cell lysate; absorbance at 450 nm; compound concentration not given
# Experimental: In this experiment, the inhibitory effect of the compounds of the present invention on EGR-1 binding activity was evaluated using an EGR-1 DNA binding activity assay (EDBA).
# Single-stranded sense and antisense oligonucleotides of the following EGR-1 binding sequence (EBS) were prepared by outsourcing to Bioneer Co., Ltd. (Daejeon, Korea). In this case, the 5'-end of the sense oligonucleotide was labeled with biotin. The sense and antisense oligonucleotides were heated at 95 °C for 5 minutes and then left overnight at room temperature to hybridize the sense and antisense oligonucleotides. Hereinafter, the hybridized sense and antisense oligonucleotides are referred to as biotin-EBS. • Sense sequence: biotin-5'-[…]-3' • Antisense sequence: 5'-[…]-3'
# Avidin protein was coated on a 96-well plate (purchased from Thermo Fisher Scientific), and biotin-EBS was added to the plate at a concentration of 0.5 pmol/50 µL/well, followed by reaction at 37 °C for 1 hour to allow biotin-EBS oligonucleotide to be attached to the plate. After washing three times with phosphate buffer saline containing 0.05% Tween 20 (PBS/Tween 20) to remove unattached biotin-EBS oligonucleotides, 200 µL of PBS/Tween 20 solution containing 2% bovine serum albumin (BSA) was added to each well, followed by reaction at 37 °C for 1 hour to block the surface of the plate where no oligonucleotide was attached.
# The solution containing the sample compound and the EGR-1 protein was added to the biotin-EBS oligonucleotide coated plate prepared in step (2).
# The compound sample (1 µL) was reacted with the EGR-1 overexpressing cell lysate containing 10 mM Tris, pH 7.5, 50 mM KCl, 2% BSA and 8% glycerol at room temperature for 30 minutes, and then added to a reaction well coated with biotin-EBS and further reacted at room temperature for one hour. After washing three times with PBS/Tween 20 solution, an EGR-1 antibody was added to the PBS solution supplemented with 2% BSA and 5 mM NaCl in an amount of 50 µL per each well. The mixture was incubated at room temperature for one hour, washed three times with PBS/Tween 20 solution, and then treated with horseradish peroxidase-conjugated secondary antibody (Goat anti-rabbit IgG antibody, Cell Signaling Technology company, Danvers, Mass., USA) diluted by 1:1000 at room temperature for one hour. After washing five times with PBS/Tween 20 solution, a substrate tetramethylbenzidine solution was added to each well in an amount of 50 µL. After reacting for 5 minutes, the reaction was stopped by adding 100 µL of 2 N sulfuric acid solution. The DNA binding inhibitory activity of EGR-1 was measured by absorbance at 450 nm according to Equation 1 below. EGR-1 DNA binding inhibitory activity (%) = 100−{(As/Ap)×100} [formula]
# As: absorbance of a sample prepared by reacting an EGR-1-overexpressing cell lysate with the compound.
# Ap: absorbance of the sample treated only with EGR-1-overexpressing cell lysate.
# EGR-1, sequence (P18146 whole entry): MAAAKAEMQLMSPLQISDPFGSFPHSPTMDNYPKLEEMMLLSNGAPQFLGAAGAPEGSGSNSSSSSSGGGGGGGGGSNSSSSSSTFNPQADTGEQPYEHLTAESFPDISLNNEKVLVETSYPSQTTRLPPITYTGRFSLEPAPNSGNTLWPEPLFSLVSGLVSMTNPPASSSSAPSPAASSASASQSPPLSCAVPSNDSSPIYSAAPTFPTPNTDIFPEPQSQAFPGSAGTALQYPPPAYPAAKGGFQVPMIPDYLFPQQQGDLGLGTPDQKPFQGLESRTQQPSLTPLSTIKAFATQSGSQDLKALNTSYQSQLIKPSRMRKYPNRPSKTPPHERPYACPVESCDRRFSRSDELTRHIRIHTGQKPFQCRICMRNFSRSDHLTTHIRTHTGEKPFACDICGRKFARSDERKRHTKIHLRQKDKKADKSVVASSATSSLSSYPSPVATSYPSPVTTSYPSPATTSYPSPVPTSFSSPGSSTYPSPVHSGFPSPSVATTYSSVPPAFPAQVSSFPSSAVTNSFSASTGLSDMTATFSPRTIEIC
row,SMILES,Inhibition Rate (%)
1,"O=C1Nc2ccc(Br)cc2/C1=N/NC(=S)Nc1ccc([N+](=O)[O-])cc1 [Compound 38, (Z)-2-(5-bromo-2-oxoindolin-3-ylidene)-N-(4-nitrophenyl)hydrazinethioamide]",51.33
2,"NNC(=S)Nc1ccc(F)cc1 [Compound 2, N-(4-fluorophenyl)hydrazinethioamide]",25.70
3,"O=C1Nc2ccc(F)cc2/C1=N/NC(=S)Nc1ccc(Br)cc1 [Compound 15, (Z)-N-(4-bromophenyl)-2-(5-fluoro-2-oxoindolin-3-ylidene)hydrazinethioamide]",37.07
4,"O=C1Nc2ccc(F)cc2/C1=N/NC(=S)Nc1ccc(C(F)(F)F)cc1 [Compound 17, (Z)-2-(5-fluoro-2-oxoindolin-3-ylidene)-N-(4-(trifluoromethyl)phenyl)hydrazinethioamide]",25.57
5,"O=C1Nc2ccc(F)cc2/C1=N/NC(=S)Nc1ccc(F)cc1 [Compound 14, (Z)-2-(5-fluoro-2-oxoindolin-3-ylidene)-N-(4-fluorophenyl)hydrazinethioamide]",17.80
6,"O=C1Nc2ccc(OC(F)(F)F)cc2/C1=N/NC(=S)Nc1ccccc1 [Compound 76, (Z)-2-(2-oxo-5-(trifluoromethoxy)indolin-3-ylidene)-N-phenylhydrazinethioamide]",17.23
7,"Cc1ccc2c(c1)/C(=N/NC(=S)Nc1ccc(F)cc1)C(=O)N2 [Compound 33, (Z)-N-(4-fluorophenyl)-2-(5-methyl-2-oxoindolin-3-ylidene)hydrazinethioamide]",37.77
8,"O=C1Nc2ccc(F)cc2/C1=N/NC(=S)Nc1ccccc1 [Compound 12, (Z)-2-(5-fluoro-2-oxoindolin-3-ylidene)-N-phenylhydrazinethioamide]",28.97
9,"O=C1Nc2c(Br)cccc2/C1=N/NC(=S)Nc1ccccc1 [Compound 46, (Z)-2-(7-bromo-2-oxoindolin-3-ylidene)-N-phenylhydrazinethioamide]",11.33
10,"COc1ccc2c(c1)NC(=O)/C2=N\NC(=S)Nc1ccc(C(F)(F)F)cc1 [Compound 26, (Z)-2-(6-methoxy-2-oxoindolin-3-ylidene)-N-(4-(trifluoromethyl)phenyl)hydrazinethioamide]",49.67
11,"Cc1cccc(NC(=S)NN)c1 [Compound 11, N-(m-tolyl)hydrazinethioamide]",18.67
12,"COc1ccc(NC(=S)N/N=C2\C(=O)Nc3ccccc32)cc1 [Compound 53, (Z)-N-(4-methoxyphenyl)-2-(2-oxoindolin-3-ylidene)hydrazinethioamide]",10.00
13,"O=C1Nc2cccc(Br)c2/C1=N/NC(=S)Nc1ccc([N+](=O)[O-])cc1 [Compound 37, (Z)-2-(4-bromo-2-oxoindolin-3-ylidene)-N-(4-nitrophenyl)hydrazinethioamide]",36.33
14,"Cc1ccc2c(c1)/C(=N/NC(=S)Nc1ccc(C#N)cc1)C(=O)N2 [Compound 71, (Z)-N-(4-cyanophenyl)-2-(5-methyl-2-oxoindolin-3-ylidene)hydrazinethioamide]",29.93
15,"CCNC(=S)N/N=C1\C(=O)Nc2ccc(C)cc21 [Compound 73, (Z)-N-ethyl-2-(5-methyl-2-oxoindolin-3-ylidene)hydrazinethioamide]",29.80
16,"COc1ccc(NC(=S)NN)cc1OC [Compound 56, N-(3,4-dimethoxyphenyl)hydrazinethioamide]",12.67
17,"NNC(=S)Nc1cccc(C(F)(F)F)c1 [Compound 1, N-(3-(trifluoromethyl)phenyl)hydrazinethioamide]",23.60

row,SMILES,Inhibition Rate (%)
1,"NC(=S)N/N=C1\C(=O)Nc2ccc(Br)cc21 [Compound 34, (Z)-2-(5-bromo-2-oxoindolin-3-ylidene)hydrazinethioamide]",46.00
2,"O=C1Nc2cccc(Cl)c2/C1=N/NC(=S)Nc1ccccc1 [Compound 59, (Z)-2-(4-chloro-2-oxoindolin-3-ylidene)-N-phenylhydrazinethioamide]",40.17
3,"COc1ccc2c(c1)NC(=O)/C2=N\NC(=S)NCc1ccccc1 [Compound 69, (Z)-N-benzyl-2-(6-methoxy-2-oxoindolin-3-ylidene)hydrazin-1-carbothioamide]",14.17
4,"NNC(=S)Nc1ccc(C(F)(F)F)cc1 [Compound 5, N-(4-(trifluoromethyl)phenyl)hydrazinethioamide]",6.33
5,"O=C1Nc2ccc(Br)cc2/C1=N/NC(=S)Nc1cccc([N+](=O)[O-])c1 [Compound 48, (Z)-2-(5-bromo-2-oxoindolin-3-ylidene)-N-(3-nitrophenyl)hydrazinethioamide]",52.00
6,"O=C1Nc2ccc(F)cc2/C1=N/NC(=S)Nc1cccc([N+](=O)[O-])c1 [Compound 13, (Z)-2-(5-fluoro-2-oxoindolin-3-ylidene)-N-(3-nitrophenyl)hydrazinethioamide]",25.57
7,"O=C1Nc2c(F)cccc2/C1=N/NC(=S)Nc1ccc(Br)cc1 [Compound 19, (Z)-N-(4-bromophenyl)-2-(7-fluoro-2-oxoindolin-3-ylidene)hydrazinethioamide]",47.77
8,"COc1ccc2c(c1)NC(=O)/C2=N\NC(=S)Nc1ccccc1OC [Compound 24, (Z)-2-(6-methoxy-2-oxoindolin-3-ylidene)-N-(2-methoxyphenyl)hydrazin-1-carbothioamide]",42.00
9,"NNC(=S)Nc1ccc(Br)cc1 [Compound 3, N-(4-bromophenyl)hydrazinethioamide]",20.73
10,"COc1cccc(NC(=S)N/N=C2\C(=O)Nc3ccc(Br)cc32)c1 [Compound 52, (Z)-2-(5-bromo-2-oxoindolin-3-ylidene)-N-(3-methoxyphenyl)hydrazinethioamide]",9.00
11,"COc1ccccc1NC(=S)N/N=C1\C(=O)Nc2ccccc21 [Compound 39, (Z)-N-(2-methoxyphenyl)-2-(2-oxoindolin-3-ylidene)hydrazinethioamide]",47.33
12,"CC(C)CNC(=S)NN [Compound 8, N-isobutylhydrazinethioamide]",38.73
13,"CCNC(=S)NN [Compound 6, N-ethylhydrazinethioamide]",27.00
14,"CCNC(=S)N/N=C1\C(=O)Nc2cc(OC)ccc21 [Compound 27, (Z)-N-ethyl-2-(6-methoxy-2-oxoindolin-3-ylidene)hydrazinethioamide]",44.00
15,"O=C1Nc2ccc(F)cc2/C1=N/NC(=S)Nc1cccc(C(F)(F)F)c1 [Compound 62, (Z)-2-(5-fluoro-2-oxoindolin-3-ylidene)-N-(3-(trifluoromethyl)phenyl)hydrazinethioamide]",10.00
16,"NC(=S)N/N=C1\C(=O)Nc2cccc(Br)c21 [Compound 40, (Z)-2-(4-bromo-2-oxoindolin-3-ylidene)hydrazinethioamide]",27.33
17,"O=C1Nc2cccc(Br)c2/C1=N/NC(=S)Nc1ccccc1 [Compound 43, (Z)-2-(4-bromo-2-oxoindolin-3-ylidene)-N-phenylhydrazinethioamide]",23.00
